How the values were obtained:
[1] = tested on: Pyricularia oryzae; experiment: whole plant or invertebrate; assay type: in vivo; conditions: for rank (control effect, protective value from lesion number): 100 ppm spray, rice seedling (Jikkoku) 4-leaf stage, lesion number on fourth leaf 6 days after inoculation; for pest or weed control at 100 ppm: Pyricularia oryzae, foliar, 144 h, read-out: rank (control effect, protective value from lesion number)
[2] = tested on: Sphaerotheca fuliginea; experiment: Test for control effect against powdery mildew of Cucurbitaceae (spray on cucumber seedlings); assay type: in vivo; conditions: 200 ppm spray, cucumber first foliage leaf, 10 days after inoculation
Source text: Test for Control Effect Against Powdery Mildew of Cucurbitaceae
A spray liquid comprising a test compound whose concentration was adjusted to be 200 ppm by dilution with water was sprayed to a cucumber grown in a vinyl pot of 3 cm in diameter when its first foliage leaf was developed. The air-dried cucumber seedling was inoculated with a conidium suspension of Sphaerotheca fuliginea. Thereafter, the cucumber seedling was transferred in an air-conditioned greenhouse. 10 Days after the inoculation, the disease severity was observed. The protective value was calculated by comparing the disease severity in a treated area with that in an untreated area. Then, control effect was ranked according to the following criterion.
B; protective value 50 to 79%

SMILES | rank (control effect, protective value from lesion number) [1] | rank (control effect, protective value from disease severity) [2] | pest or weed control at 100 ppm [1] [%]
CCOC(=O)Oc1c(C)c(C)nc2ccc(C(C)CC)cc12 (stereo not drawn) [compound 66] | A (protective value ≧80%) | A (protective value ≧80%) | 
CCC(C)c1ccc2nc(C)c(C)c(OC(=O)c3ccccc3)c2c1 (stereo not drawn) [compound 61] | A (protective value ≧80%) | B (protective value 50 to 79%) | 
CCCCc1ccc2nc(C)c(CCC)c(OC(C)=O)c2c1 [compound 45] | A (protective value ≧80%) | B (protective value 50 to 79%) | 
CCC(C)c1cc(CO)c2nc(C)c(C)c(OC(C)=O)c2c1 (stereo not drawn) [Compound No. 340, 4-acetoxy-6-s-butyl-8-hydroxymethyl-2,3-dimethylquinoline] |  | A (protective value ≧80%) | > 80
CCC(C)c1ccc2nc(C)c(C)c(OC(=O)N(CC)CC)c2c1 (stereo not drawn) [compound 72] | B (protective value 50 to 79%) | A (protective value ≧80%) | 
CCCCCCCCOC(=O)Oc1c(C)c(C)nc2ccc(C(C)CC)cc12 (stereo not drawn) [compound 67] | A (protective value ≧80%) | A (protective value ≧80%) | 
CCC(C)c1cc(CCl)c2nc(C)c(C)c(OC(C)=O)c2c1 (stereo not drawn) [Compound No. 344, 4-acetoxy-6-s-butyl-8-chloromethyl-2,3-dimethylquinoline] |  | A (protective value ≧80%) | > 80
CCCCc1cc(Cl)c2nc(C)c(C)c(OC(C)=O)c2c1 [Compound No. 216] | A (protective value ≧80%) | B (protective value 50 to 79%) | 
CCC(C)c1ccc2nc(C)c(C)c(OC(C)=O)c2c1 (stereo not drawn) [compound 55] | A (protective value ≧80%) | A (protective value ≧80%) | 
CC(=O)Oc1c(C)c(C)nc2ccc(C3CCCCC3)cc12 [Compound No. 112] | A (protective value ≧80%) | A (protective value ≧80%) | 
CCC(C)c1ccc2nc3c(c(OC(C)=O)c2c1)CCC3 (stereo not drawn) [Compound No. 153] | B (protective value 50 to 79%) | A (protective value ≧80%) | 
CCc1cc(C(C)CC)cc2c(OC(C)=O)c(C)c(C)nc12 (racemic) [Compound No. 348] | A (protective value ≧80%) | A (protective value ≧80%) | 
CC(=O)Oc1c(C)c(C)nc2ccc(OC(C)C)cc12 [compound 24] | B (protective value 50 to 79%) | A (protective value ≧80%) | 
CCC(=O)Oc1c(C)c(C)nc2ccc(C(C)CC)cc12 (stereo not drawn) [compound 56] | A (protective value ≧80%) | A (protective value ≧80%) | 
CCC(C)c1cc(Cl)c2nc(C)c(C)c(OC(C)=O)c2c1 (stereo not drawn) [Compound No. 214, 4-acetoxy-6-s-butyl-8-chloro-2,3-dimethylquinoline] |  | A (protective value ≧80%) | > 80
CC(=O)Oc1c(C)c(C)nc2ccc(Br)c(C)c12 [compound 197] | A (protective value ≧80%) | A (protective value ≧80%) | 
CC(=O)Oc1c(C)c(C)nc2c(C)cc(Br)cc12 [compound 195] | A (protective value ≧80%) | A (protective value ≧80%) | 
CCC(C)c1ccc2nc(C)c(C)c(OC(=O)OC)c2c1 (stereo not drawn) [compound 65] | A (protective value ≧80%) | A (protective value ≧80%) | 

Source: patent US6680282B2 (priority 1997, dated 2004)
